Where two headings read alike, the source gives them in different places.
How the values were obtained:
K562 = assay: Cytotoxicity assay (resazurin) on K562; assay type: cell-based; conditions: Homo sapiens, 72 h
Description: (§1) Human cell lines KCL22 and BV173 were obtained from the German Collection of Microorganisms and Cell Cultures, K562 and HEK-293T from the European Collection of Authenticated Cell Cultures. KBM5 cell line was kindly gifted by Vladimír Divoký. Development of KCL22 subclones B8 (T315I, 100%), F4 (E255K, 100%), and B10 (Y253H, 50%) was reported previously. All cell lines were cultivated in humidified incubator at 37 °C and in 5% CO2 according to the provider’s instructions in appropriate media supplemented with 10% fetal bovine serum, penicillin (100 IU/mL), streptomycin (100 µg/mL), and glutamine (4 mM).
(§2) Cytotoxicity was determined using resazurin, an indicator dye to measure oxidation-reduction reactions occurring in the mitochondria of live cells. The cells were seeded into 96-well plates and treated with compounds for 72 h (six different doses of each, in triplicate). After treatment, resazurin (Merck, Darmstadt, Germany) solution was added for 4 h, and the fluorescence of formed resorufin corresponding to live cell quantity was measured at 544 nm/590 nm (excitation/emission) using a Fluoroskan Ascent microplate reader (Labsystems, Vantaa, Finland).

KCL22 B10 (Y253H, 50%) = assay: Cytotoxicity assay (resazurin) on KCL22 subclone B10; assay type: cell-based; conditions: Homo sapiens, KCL-22, read-out: GI50 KCL22 B10 Y253H (50%), 72 h
Description: as §1, §2

BV173 = assay: Cytotoxicity assay (resazurin) on BV173; assay type: cell-based; conditions: Homo sapiens, BV-173, 72 h
Description: as §1, §2

recombinant Abl1 kinase = biological target: T1, recombinant Abl1 kinase (Homo sapiens, UniProt P00519); assay: Recombinant Abl1 kinase inhibition assay ([γ-33P]ATP, peptide substrate); assay type: biochemical
T1 construct: made in house
T1 sequence (P00519 whole entry): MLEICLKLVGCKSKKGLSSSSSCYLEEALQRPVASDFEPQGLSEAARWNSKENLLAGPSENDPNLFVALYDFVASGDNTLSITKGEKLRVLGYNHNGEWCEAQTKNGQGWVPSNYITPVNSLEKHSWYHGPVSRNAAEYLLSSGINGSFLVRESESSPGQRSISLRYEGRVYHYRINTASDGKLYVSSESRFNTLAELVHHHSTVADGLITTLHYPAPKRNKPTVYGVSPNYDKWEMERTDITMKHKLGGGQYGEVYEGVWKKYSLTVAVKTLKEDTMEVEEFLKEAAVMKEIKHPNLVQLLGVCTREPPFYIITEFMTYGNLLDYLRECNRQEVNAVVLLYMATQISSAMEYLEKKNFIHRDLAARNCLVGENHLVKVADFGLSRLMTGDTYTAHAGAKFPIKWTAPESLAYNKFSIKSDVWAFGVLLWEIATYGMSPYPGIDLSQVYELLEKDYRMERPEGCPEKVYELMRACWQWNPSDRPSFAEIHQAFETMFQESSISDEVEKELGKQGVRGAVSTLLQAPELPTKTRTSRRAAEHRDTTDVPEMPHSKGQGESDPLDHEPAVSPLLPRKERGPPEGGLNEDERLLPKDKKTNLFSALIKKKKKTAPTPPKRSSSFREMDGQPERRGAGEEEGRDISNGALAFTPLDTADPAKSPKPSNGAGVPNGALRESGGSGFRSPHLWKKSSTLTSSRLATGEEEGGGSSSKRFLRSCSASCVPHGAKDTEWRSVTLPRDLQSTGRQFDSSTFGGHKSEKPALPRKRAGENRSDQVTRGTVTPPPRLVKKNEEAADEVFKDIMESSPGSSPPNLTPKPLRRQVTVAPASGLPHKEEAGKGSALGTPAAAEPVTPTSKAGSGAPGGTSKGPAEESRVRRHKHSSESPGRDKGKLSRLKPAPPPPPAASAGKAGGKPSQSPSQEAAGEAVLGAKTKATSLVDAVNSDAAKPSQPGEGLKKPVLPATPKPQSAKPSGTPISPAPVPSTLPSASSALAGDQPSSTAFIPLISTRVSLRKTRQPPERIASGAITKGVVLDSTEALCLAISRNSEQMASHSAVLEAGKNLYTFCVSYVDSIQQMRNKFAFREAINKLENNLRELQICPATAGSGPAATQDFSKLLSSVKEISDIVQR
Description: The reactions were stopped by adding 5 µL of 3% aq. H3PO4. […] H3PO4, and air-dried.

KBM5 = assay: Cytotoxicity assay (resazurin) on KBM5; assay type: cell-based; conditions: Homo sapiens, KBM5; 72 h, resazurin assay; read-out: GI50 KBM5
HEK-293T = assay: Cytotoxicity assay (resazurin) on non-neoplastic HEK-293T; assay type: cell-based; conditions: Homo sapiens, 72 h, non-neoplastic cells
Description: as §1, §2

KCL22 F4 (E255K, 100%) = assay: Cytotoxicity assay (resazurin) on KCL22 subclone F4; assay type: cell-based; conditions: Homo sapiens, KCL-22, read-out: GI50 KCL22 F4 E255K (100%), 72 h
Description: as §1, §2

KCL22 B8 (T315I, 100%) = assay: Cytotoxicity assay (resazurin) on KCL22 subclone B8; assay type: cell-based; conditions: Homo sapiens, KCL-22, read-out: GI50 KCL22 B8 T315I (100%), 72 h
Description: as §1, §2

[1] = test system: KCL22 cells containing Bcr-Abl^WT; assay: Cytotoxicity assay (resazurin) on KCL22 WT; assay type: cell-based, human; conditions: Homo sapiens, KCL-22, 72 h, read-out: GI50 KCL22 WT
[2] = from the IC50 of Table S1, read-out: pIC50 (Table S1) (converted)
[3] = recombinant Abl1, 1 µM ATP, at least three independent experiments, read-out: IC50 Abl
[4] = as listed in Table S1, Bcr-Abl WT, read-out: IC50 (Table S1)

| Structure (SMILES) | IC50 (recombinant Abl1 kinase; [2]) [µM] | IC50 (recombinant Abl1 kinase; [3]) [µM] | melting point [°C] | IC50 (recombinant Abl1 kinase; [4]) [µM] | GI50 (K562) [µM] | GI50 (KCL22 B10 (Y253H, 50%)) [µM] | GI50 (BV173) [µM] | GI50 (KBM5) [µM] | GI50 (HEK-293T) [µM] | GI50 (KCL22 F4 (E255K, 100%)) [µM] | GI50 (KCL22 B8 (T315I, 100%)) [µM] | GI50 [1] [µM] |
| --- | --- | --- | --- | --- | --- | --- | --- | --- | --- | --- | --- | --- |
| CN1CCN(Cc2ccc(Nc3nc(Nc4cccc(F)c4)c4ncn(CC5CC5)c4n3)cc2)CC1 [Compound 7a, 9-(Cyclopropylmethyl)-N^6-(3-fluorophenyl)-N^2-(4-((4-methylpiperazin-1-yl)methyl)phenyl)-9H-purine-2,6-diamine] | 0.18 | 0.18 ± 0.068 | – | – | 1.5 ± 0.1 | 7.4 ± 0.6 | 3.3 ± 1.6 | 4.4 ± 0.8 | 6.3 ± 0.7 | 11.1 ± 0.5 | 13.8 ± 2 | 8.1 ± 0.5 |
| CN1CCN(Cc2ccc(Nc3nc(Nc4ccc(F)c(F)c4)c4ncn(CC5CC5)c4n3)cc2)CC1 [Compound 7b, 9-(Cyclopropylmethyl)-N^6-(3,4-difluorophenyl)-N^2-(4-((4-methylpiperazin-1-yl)methyl)phenyl)-9H-purine-2,6-diamine] | 0.22 | 0.225 ± 0.042 | – | – | 1.4 ± 0.2 | 6.6 ± 0.2 | 1.9 ± 0.1 | 4.2 ± 0.2 | 6.3 ± 1.2 | 10.1 ± 1.2 | 11.4 ± 3.2 | 8.5 ± 1.4 |
| OCCN1CCN(c2ccc(Nc3nc(Nc4ccc(F)c(F)c4)c4ncn(CC5CC5)c4n3)cc2)CC1 [Compound 11c, 2-(4-(4-((9-(Cyclopropylmethyl)-6-((3,4-difluorophenyl)amino)-9H-purin-2-yl)amino)phenyl)piperazin-1-yl)ethan-1-ol] | 0.019 | 0.02 ± 0.001 | – | – | 0.9 ± 0.2 | 4.1 ± 0.2 | 1.7 ± 0.1 | 2.1 ± 0.3 | 5 ± 0.9 | 4.1 ± 0.2 | 6.4 ± 0.4 | 2.9 |
| CC(C)CCn1cnc2c(Nc3ccc(F)c(F)c3)nc(Nc3ccc(N4CCN(CCO)CC4)cc3)nc21 [Compound 11f, 2-(4-(4-((6-((3,4-Difluorophenyl)amino)-9-isopentyl-9H-purin-2-yl)amino)phenyl)piperazin-1-yl)ethan-1-ol] | 1.76 | 1.76 ± 0.74 | – | – | 5.9 ± 0.6 | 7 ± 0.5 | 4.5 ± 0.1 | 5.2 ± 0.1 | 5.2 ± 0.7 | 5.7 ± 0.1 | 7.2 ± 1 | 6.5 ± 0.2 |
| CCCCCCn1cnc2c(Nc3cccc(F)c3)nc(Nc3ccc(N4CCN(CCO)CC4)cc3)nc21 [Compound 11h, 2-(4-(4-((6-((3-Fluorophenyl)amino)-9-hexyl-9H-purin-2-yl)amino)phenyl)piperazin-1-yl)ethan-1-ol] | 0.67 | 0.674 ± 0.069 | – | 0.67 | 4.8 ± 0.4 | 5.9 ± 0.7 | 5.2 ± 0.5 | 5.8 ± 0.2 | 6 ± 1 | 8.1 ± 1.2 | 9.5 ± 1.5 | 9.6 ± 1 |

Continued, in another order:

| IC50 (recombinant Abl1 kinase; [2]) [µM] | IC50 (recombinant Abl1 kinase; [3]) [µM] | melting point [°C] | IC50 (recombinant Abl1 kinase; [4]) [µM] | Structure (SMILES) | GI50 (K562) [µM] | GI50 (KCL22 B10 (Y253H, 50%)) [µM] | GI50 (BV173) [µM] | GI50 (KBM5) [µM] | GI50 (HEK-293T) [µM] | GI50 (KCL22 F4 (E255K, 100%)) [µM] | GI50 (KCL22 B8 (T315I, 100%)) [µM] | GI50 [1] [µM] |
| --- | --- | --- | --- | --- | --- | --- | --- | --- | --- | --- | --- | --- |
| 0.037 | 0.037 ± 0.012 | – | – | OCCN1CCN(c2ccc(Nc3nc(Nc4ccccc4)c4ncn(CC5CC5)c4n3)cc2)CC1 [Compound 11a, 2-(4-(4-((9-(Cyclopropylmethyl)-6-(phenylamino)-9H-purin-2-yl)amino)phenyl)piperazin-1-yl)ethan-1-ol] | 1.2 ± 0.3 | 6.3 ± 0.4 | 3 ± 0.6 | 3 ± 0.1 | 9.5 ± 0.7 | 12.7 ± 0.1 | > 20 | 5.7 ± 0.8 |
| 1.24 | 1.24 ± 0.22 | 88.6 to 89.2 | – | CC(C)CCn1cnc2c(Nc3ccccc3)nc(Nc3ccc(N4CCN(CCO)CC4)cc3)nc21 [Compound 11d, 2-(4-(4-((9-Isopentyl-6-(phenylamino)-9H-purin-2-yl)amino)phenyl)piperazin-1-yl)ethan-1-ol] | 6.3 ± 0.7 | 7.8 ± 0.5 | 3.6 ± 0.7 | 5.6 ± 0.4 | 5.7 ± 1.2 | 6.6 ± 0.6 | 7.8 ± 1.3 | 8.4 ± 0.3 |
| 0.83 | 0.834 ± 0.447 | – | 0.83 | CCCCCCn1cnc2c(Nc3ccccc3)nc(Nc3ccc(N4CCN(CCO)CC4)cc3)nc21 [Compound 11g, 2-(4-(4-((9-Hexyl-6-(phenylamino)-9H-purin-2-yl)amino)phenyl)piperazin-1-yl)ethan-1-ol] | 4.5 ± 1.4 | 7.7 ± 0.2 | 5.2 ± 0.2 | 5.4 ± 0.2 | 8.6 ± 3.2 | 8.5 ± 0.9 | 10.4 ± 1.8 | 15.1 ± 2.2 |
